Here are results for 22 molecules from patent US7977346B2, “Spiro compounds and methods of use” (priority 2006, dated 2011).

Experiment [1] has as its system human tumor NSCLC A549 cell line. The experiment is described as follows: MTT assay against human tumor NSCLC A549 cell line. Format: cell-based. An excerpt: (§1) The following in vitro results are activities of some compounds in present invention against human tumor NSCLC A549 cell line and colon LOVO cell line in MTT assay.
A general note: Formazan colour is commonly taken as a measure of viable cells.

The test system of a further experiment is colon LOVO cell line. The experiment can be described thus: MTT assay against colon LOVO cell line. It counts as cell-based, human.
From the text: as §1

As to `COc1cc2ncnc(Nc3ccc(F)c(Cl)c3)c2cc1OCCCN1CC2(CC2)C2(C1)OCCO2` [Example 20, N-(3-chloro-4-fluorophenyl)-7-methoxy-6-[3-(5,8-Dioxa-10-azadispiro[2.0.4.3]undecane)propoxy]quinazolin-4-amine], the IC50 – broadly, the concentration that inhibits the measured activity by half – in experiment [1] worked out at 0.0619 nM; with colon LOVO cell line, 0.0375 nM.
In the same order, the values of `COc1cc2ncnc(Nc3ccc(F)c(Cl)c3)c2cc1OCCN1CC2(CC2)C2(C1)OCCO2` [Example 21, N-(3-chloro-4-fluorophenyl)-7-methoxy-6-[2-(5,8-Dioxa-10-azadispiro[2.0.4.3]undecane)ethoxy]quinazolin-4-amine] are 0.0421 nM and 0.139 nM.
In the same order, the values of `COc1cc2ncnc(Nc3ccc(F)c(Cl)c3)c2cc1OCCCN1CC(=O)C2(CC2)C1` [Example 22, N-(3-chloro-4-fluorophenyl)-7-methoxy-6-[3-(5-azaspiro[2.4]heptan-7-one)propoxy]quinazolin-4-amine] are 0.0359 nM and 0.0329 nM.
In the same order, the values of `COc1cc2ncnc(Nc3ccc(F)c(Cl)c3)c2cc1OCCN1CC(=O)C2(CC2)C1` [Example 23, N-(3-chloro-4-fluorophenyl)-7-methoxy-6-[2-(5-azaspiro[2.4]heptan-7-one)ethoxy]quinazolin-4-amine] are 0.0893 nM and 0.219 nM.
As for `COc1cc2ncnc(Nc3ccc(F)c(Cl)c3)c2cc1OCCCN1CC(O)C2(CC2)C1` (centres unmarked) [Example 24, N-(3-chloro-4-fluorophenyl)-7-methoxy-6-[3-(5-azaspiro[2.4]heptan-7-ol)propoxy]quinazolin-4-amine], the IC50 in experiment [1] was found to be 0.0375 nM; with colon LOVO cell line, 0.165 nM.
In the same order, the values of `COc1cc2ncnc(Nc3ccc(F)c(Cl)c3)c2cc1OCCN1CC(O)C2(CC2)C1` (centres unmarked) [Example 25, N-(3-chloro-4-fluorophenyl)-7-methoxy-6-[2-(5-azaspiro[2.4]heptan-7-ol)ethoxy]quinazolin-4-amine] are 0.0573 nM and 0.0954 nM.
In the same order, the values of `COc1cc2ncnc(Nc3ccc(F)c(Cl)c3)c2cc1OCCCN1CC(OC)C2(CC2)C1` (centres unmarked) [Example 26, N-(3-chloro-4-fluorophenyl)-7-methoxy-6-[3-(7-methoxy-5-azaspiro[2.4]heptane)propoxy]quinazolin-4-amine] are 0.091 nM and 0.0376 nM.
`COc1cc2ncnc(Nc3ccc(F)c(Cl)c3)c2cc1OCCN1CC(OC)C2(CC2)C1` (centres unmarked) [Example 27, N-(3-chloro-4-fluorophenyl)-7-methoxy-6-[2-(7-methoxy-5-azaspiro[2.4]heptane)ethoxy]quinazolin-4-amine]: the IC50 in experiment [1] was found to be 0.212 nM; with colon LOVO cell line, 0.0978 nM.
In the same order, the values of `C#Cc1cccc(Nc2ncnc3cc(OC)c(OCCN4CC5(CC5)C5(C4)OCCO5)cc23)c1` [Example 28, N-(3-ethynylphenyl)-7-methoxy-6-[2-(5,8-Dioxa-10-azadispiro[2.0.4.3]undecane)ethoxy]quinazolin-4-amine] are 0.096 nM and 0.0376 nM.
In the same order, the values of `C#Cc1cccc(Nc2ncnc3cc(OC)c(OCCN4CC(=O)C5(CC5)C4)cc23)c1` [Example 29, N-(3-ethynylphenyl)-7-methoxy-6-[2-(5-azaspiro[2.4]heptan-7-one)ethoxy]quinazolin-4-amine] are 0.104 nM and 0.0934 nM.
Turning to `C#Cc1cccc(Nc2ncnc3cc(OC)c(OCCN4CC(O)C5(CC5)C4)cc23)c1` (centres unmarked) [Example 30, N-(3-ethynylphenyl)-7-methoxy-6-[2-(5-azaspiro[2.4]heptan-7-ol)ethoxy]quinazolin-4-amine], the half-inhibitory concentration (IC50) was 0.0749 nM in experiment [1] and 0.0272 nM with colon LOVO cell line.
In the same order, the values of `COc1cc2ncnc(Nc3cccc(C(F)(F)F)c3)c2cc1OCCN1CC2(CC2)C2(C1)OCCO2` [Example 31, N-(3-trifluoromethylphenyl)-7-methoxy-6-[2-(5,8-Dioxa-10-azadispiro[2.0.4.3]undecane)ethoxy]quinazolin-4-amine] are 0.0546 nM and 0.098 nM.
Take `COc1cc2ncnc(Nc3cccc(Br)c3)c2cc1OCCN1CC2(CC2)C2(C1)OCCO2` [Example 32, N-(3-bromophenyl)-7-methoxy-6-[2-(5,8-Dioxa-10-azadispiro[2.0.4.3]undecane)ethoxy]quinazolin-4-amine]: the IC50 in experiment [1] amounted to 0.028 nM; with colon LOVO cell line, 0.032 nM.
In the same order, the values of `COc1cc2ncnc(Nc3ccc(Cl)c(Cl)c3)c2cc1OCCN1CC2(CC2)C2(C1)OCCO2` [Example 33, N-(3,4-dichlorophenyl)-7-methoxy-6-[2-(5,8-Dioxa-10-azadispiro[2.0.4.3]undecane)ethoxy]quinazolin-4-amine] are 0.0519 nM and 0.118 nM.
In the same order, the values of `COc1cc2ncnc(Nc3ccc(F)c(Cl)c3)c2cc1OCCCN1CC2(CC2)C2(C1)OCCS2` (centres unmarked) [Example 34, N-(3-chloro-4-fluorophenyl)-7-methoxy-6-[3-(5,8-Oxathiolane-10-azadispiro[2.0.4.3]undecane)propoxy]quinazolin-4-amine] are 0.034 nM and 0.171 nM.
In the same order, the values of `COc1cc2c(Nc3ccc(Br)cc3F)ncnc2cc1OCCCN1CC2(CC2)C2(C1)OCCO2` [Example 35, N-(2-fluoro-4-bromophenyl)-6-methoxy-7-[3-(5,8-Dioxa-10-azadispiro[2.0.4.3]undecane)propoxy]quinazolin-4-amine] are 0.0402 nM and 0.0318 nM.
On to `COc1cc2c(Nc3ccc(Br)cc3F)ncnc2cc1OCCN1CC2(CC2)C2(C1)OCCO2` [Example 36, N-(2-fluoro-4-bromophenyl)-6-methoxy-7-[2-(5,8-Dioxa-10-azadispiro[2.0.4.3]undecane)ethoxy]quinazolin-4-amine], for which the IC50 was 0.022 nM in experiment [1] and 0.057 nM with colon LOVO cell line.
As for `COc1cc2ncnc(Nc3ccc(F)c(Cl)c3)c2cc1OCCN1CC2(CC2)C2(C1)OCCS2` (centres unmarked) [Example 37, N-(3-chloro-4-fluorophenyl)-7-methoxy-6-[2-(5,8-Oxathiolane-10-azadispiro[2.0.4.3]undecane)ethoxy]quinazolin-4-amine], the half-maximal inhibitory concentration (IC50) in experiment [1] was 0.132 nM; in the experiment with colon LOVO cell line, 0.0553 nM.
With `COc1cc2ncnc(Nc3ccc(F)c(Cl)c3)c2cc1OCCN1CC2(CC2)C2(C1)OCCCO2` [Example 38, N-(3-chloro-4-fluorophenyl)-7-methoxy-6-[2-(5,9-Dioxa-11-azadispiro[2.0.4.3]dodecane)ethoxy]quinazolin-4-amine], the values for the 50% inhibitory concentration (IC50) (in experiment [1]; with colon LOVO cell line) were 0.073 nM and 0.143 nM, respectively.
In the same order, the values of `COc1cc2ncnc(Nc3ccc(F)c(Cl)c3)c2cc1OCCN1CC2(CC2)C2(C1)OCC(C)(C)CO2` [Example 39, N-(3-chloro-4-fluorophenyl)-7-methoxy-6-[2-(5,9-Dioxa-7,7-dimethyl-11-azadispiro[2.0.4.3]dodecane)ethoxy]quinazolin-4-amine] are 0.023 nM and 0.03 nM.
`COc1cc2ncnc(Nc3ccc(F)c(Cl)c3)c2cc1OCCCN1CC2(CC2)C2(C1)OCC(C)(C)CO2` [Example 41, N-(3-chloro-4-fluorophenyl)-7-methoxy-6-[3-(5,9-Dioxa-7,7-dimethyl-11-azadispiro[2.0.4.3]dodecane)propoxy]quinazolin-4-amine]: the IC50 in experiment [1] was found to be 0.075 nM; in the experiment on colon LOVO cell line, 0.129 nM.
Consider “N-(3-chloro-4-fluorophenyl)-7-methoxy-6-[3-(5,9-Dioxa-11-azadispiro[2.0.4.3]dodecane)propoxy]quinazolin-4-amine [Example 40]”, for which the IC50 in experiment [1] worked out at 0.042 nM; in the experiment on colon LOVO cell line, 0.029 nM.
